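Following 48 hours of exposure in 96-well plates, responses at five concentrations were used to interpolate endpoints linearly. Abbreviation: GI50, concentration required for 50% inhibition of growth.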 Calls of active or inactive are those of the source. Rule as the data show it: active = GI50 up to about 1.1 µM and inactive = higher.
Experiments:
Assay in all cases: NCI tumour cell line growth inhibition, 48 h
DMS-114 = tested on: DMS-114
RXF 631 = tested on: RXF 631
XF498 = tested on: XF498
HOP-18 = tested on: HOP-18
LXFL 529 = tested on: LXFL 529
SNB-78 = tested on: SNB-78
KM-20L2 = tested on: KM-20L2
DMS-273 = tested on: DMS-273
BT-549 = tested on: BT-549

| SMILES | GI50 (DMS-114) | GI50 (RXF 631) | GI50 (XF498) | GI50 (HOP-18) | GI50 (LXFL 529) | GI50 (SNB-78) | GI50 (KM-20L2) | GI50 (DMS-273) | GI50 (BT-549) |
| --- | --- | --- | --- | --- | --- | --- | --- | --- | --- |
| CC1=C(C(=O)CC(=O)C(=O)Nc2cc(C)ccc2C)Sc2ccccc2N1 | > 100 µM (inactive) | > 100 µM (inactive) | > 100 µM (inactive) | > 100 µM (inactive) | > 100 µM (inactive) | > 100 µM (inactive) |  |  |  |
| O=C1C=C(Nc2ccccc2C(=O)CC(=O)C(=O)Nc2ccc(Cl)cc2)c2ccccc2C1=O | 3.64 µM (inactive) | 30 µM (inactive) | 13.7 µM (inactive) | 0.594 µM (active) | 7.52 µM (inactive) | 6.37 µM (inactive) | > 55.2 µM (inactive) | 13.8 µM (inactive) |  |
| COc1cc(=O)oc(/C=C/CO)c1C | > 100 µM (inactive) | > 100 µM (inactive) | > 100 µM (inactive) | > 100 µM (inactive) | > 100 µM (inactive) |  | > 100 µM (inactive) | > 100 µM (inactive) |  |
| O=C1OC(CC(=O)c2ccc(Cl)cc2Cl)C(Cl)=C1Cl (stereo not given) | 18.4 µM (inactive) | 31.1 µM (inactive) | 21.3 µM (inactive) | > 100 µM (inactive) | 17.1 µM (inactive) | 33.1 µM (inactive) | 21.1 µM (inactive) | 39 µM (inactive) |  |
| COc1ccc2nc3cc(Cl)ccc3c(Sc3ccccc3[N+](=O)[O-])c2c1 | > 100 µM (inactive) | 43.9 µM (inactive) | 29.4 µM (inactive) | > 100 µM (inactive) | > 100 µM (inactive) | 41.2 µM (inactive) | > 100 µM (inactive) | > 100 µM (inactive) |  |
| CCN(CC)CCNc1ccc2nnn3c4ccc([N+](=O)[O-])cc4c(=O)c1c23 | 8.53 µM (inactive) | 4.11 µM (inactive) | 6.25 µM (inactive) | 2.8 µM (inactive) | 4.98 µM (inactive) | 9.71 µM (inactive) | 4.94 µM (inactive) | 5.16 µM (inactive) | > 100 µM (inactive) |
| C[C@]12C=CC(=O)C=C1CC[C@@H]1[C@@H]2CC[C@]2(C)OC(=O)CC[C@@H]12 [TESTOLACTONE] | 376 µM (inactive) | > 472 µM (inactive) | 245 µM (inactive) | 98.4 µM (inactive) | > 500 µM (inactive) | 460 µM (inactive) | 456 µM (inactive) | > 490 µM (inactive) | 237 µM (inactive) |

From ChEMBL document CHEMBL1201862, “PubChem BioAssay data set” (2004)
